In patent US8778929B2, “Substituted heteroaryl inhibitors of B-RAF” (Boehringer Ingelheim International GmbH, priority 2008, dated 2014):

target: B-Raf (V600E)-kinase (Homo sapiens, UniProt P15056, V600E); test: Kinase test B-Raf (V600E); assay type: biochemical; conditions: compound concentration 2 μM; 100% = no inhibition, 0% = total inhibition; read-out: % CTL (residual activity of the enzyme relative to DMSO control)
Summary of the method: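 Kinase preincubated with compound (typically 2 μM to 0.119 nM or 0.017 nM, 5% DMSO) 1 h at RT, then reacted 60 min at RT with 250 μM ATP and biotinylated MEK1. Phospho-MEK (Ser217/221) captured on streptavidin, detected by europium time-resolved fluorescence; IC50 from dose-response curves.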

Sequence of B-Raf (V600E)-kinase (P15056 whole entry V600E): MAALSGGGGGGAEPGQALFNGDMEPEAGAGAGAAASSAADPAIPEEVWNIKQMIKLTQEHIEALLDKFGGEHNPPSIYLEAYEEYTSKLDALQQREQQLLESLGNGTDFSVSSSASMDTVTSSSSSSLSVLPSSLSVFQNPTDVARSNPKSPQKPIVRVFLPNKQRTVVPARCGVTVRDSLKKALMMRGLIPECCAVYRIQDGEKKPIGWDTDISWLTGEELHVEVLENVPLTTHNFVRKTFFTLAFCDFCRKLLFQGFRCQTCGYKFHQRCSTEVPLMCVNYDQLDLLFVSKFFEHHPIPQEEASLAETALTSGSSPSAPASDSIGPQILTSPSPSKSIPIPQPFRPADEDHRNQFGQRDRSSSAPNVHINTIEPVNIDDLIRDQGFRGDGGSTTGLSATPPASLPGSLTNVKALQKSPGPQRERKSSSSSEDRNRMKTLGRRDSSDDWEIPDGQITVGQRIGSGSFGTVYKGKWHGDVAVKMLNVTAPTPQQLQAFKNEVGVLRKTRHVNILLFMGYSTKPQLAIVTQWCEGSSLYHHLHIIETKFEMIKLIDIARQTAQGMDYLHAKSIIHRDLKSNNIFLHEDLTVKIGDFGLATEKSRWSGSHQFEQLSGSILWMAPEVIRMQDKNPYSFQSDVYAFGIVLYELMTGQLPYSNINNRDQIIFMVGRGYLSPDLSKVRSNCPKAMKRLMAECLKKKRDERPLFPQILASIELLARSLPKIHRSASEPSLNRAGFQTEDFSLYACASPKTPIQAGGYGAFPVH

SMILES | remaining activity at 2 µM
C=CCN1CCN(c2cncc(-c3cn(-c4cc(C(=O)Nc5cc(C(C)(C)C)on5)cnc4C)nn3)c2)CC1 [Example I-174] | 8.1%
COCCCN1CCN(c2cncc(-c3cn(-c4cc(NC(=O)c5ccc(OC)c(C(F)(F)F)c5)cnc4C)nn3)c2)CC1 [XII-46] | 1.8%
Cc1ncc(C(=O)Nc2cc(C3=CCNCC3)cc(C(F)(F)F)c2)cc1-n1cc(-c2cnn(C)c2C)nn1 [Example I-88] | 1.3%
CCN1CCN(c2cc(NC(=O)c3cnc(C)c(-n4cc(-c5cncc(OC)c5)nn4)c3)cc(C(F)(F)F)c2C)CC1 [Example I-26] | 1.4%
Cc1ncc(C(=O)Nc2cc(C(C)(C)C)on2)cc1-n1cc(-c2cncc(CN3CC[C@H](F)C3)c2)nn1 [Example I-193] | 3.6%
CCN1CCN(c2cc(C(F)(F)F)cc(NC(=O)c3cnc(C)c(-n4cc(-c5cnn(C)c5C)nn4)c3)c2C)CC1 [Example I-120] | 1.7%
Cc1cn2c(-c3cn(-c4cc(C(=O)Nc5cc(N6CCN(C)CC6)cc(C(F)(F)F)c5)cnc4C)nn3)cnc2cn1 [Example I-45] | 3.2%
COc1cncc(-c2cn(-c3cc(NC(=O)c4cccc(C(C)(C)C#N)c4)cnc3C)nn2)c1 [XII-12] | 5.2%
Cc1ncc(C(=O)Nc2nc(C(C)(C)C)cs2)cc1-n1cc(-c2cncc(N3CCN(C(C)C)CC3)c2)nn1 [Example I-148] | 4%
Cc1ncc(C(=O)Nc2cc(C3CCN(C)CC3)cc(C(F)(F)F)c2)cc1-n1cc(-c2cnn(C)c2C)nn1 [Example I-86] | 1.4%
COc1c(CNCC(C)C)cc(NC(=O)c2cnc(C)c(-n3cc(-c4cnn(C)c4C)nn3)c2)cc1C(F)(F)F [Example I-95] | 3.1%
Cc1ncc(C(=O)Nc2cc(Br)c(C)c(C(F)(F)F)c2)cc1-n1cc(-c2cnn(C)c2C)nn1 [Example I-56] | 1.4%
COc1cncc(-c2cn(-c3cc(C(=O)Nc4cc(OC(F)(F)F)cc(N5CCN(C)CC5)c4)cnc3C)nn2)c1 [Example I-85] | 1.1%
Cc1ncc(C(=O)Nc2cc(C(C)(C)C)on2)cc1-n1cc(-c2cncc(N3CCN(CCO)CC3)c2)nn1 [Example I-179] | 2.6%
Cc1ncc(C(=O)Nc2cn(C(C)C)nn2)cc1-n1cc(-c2cncc(N3CCN(C(C)C)CC3)c2)nn1 [Example I-149] | 2.1%
Cc1ncc(C(=O)Nc2cc(C(C)(C)C)n[nH]2)cc1-n1cc(-c2cncs2)nn1 [Example I-83] | 1.1%
COc1cncc(-c2cn(-c3cc(C(=O)Nc4cc(N5CCN(C)CC5)cc(C(F)(F)F)c4)cnc3C)nn2)c1 [Example I-24] | 1%
COc1ccc(C(=O)Nc2cnc(C)c(-n3cc(-c4cncc(N5CCN(C(C)C)CC5)c4)nn3)c2)cc1C(F)(F)F [XII-43] | 2.1%

SMILES | remaining activity at 2 µM
Cc1ncc(C(=O)Nc2cc(C(C)(C)C)on2)cc1-n1cc(-c2cncc(N3CCN(CC(F)F)CC3)c2)nn1 [Example I-181] | 2.3%
Cc1ncc(C(=O)Nc2cc(CN3CCCC3)c(C)c(C(F)(F)F)c2)cc1-n1cc(-c2cnn(C)c2C)nn1 [Example I-130] | 2.2%
Cc1ncc(C(=O)Nc2cc(N3CCOCC3)cc(C(F)(F)F)c2)cc1-n1cc(-c2cnn(C)c2C)nn1 [Example I-69] | 2.8%
Cc1ncc(NC(=O)c2cccc(C(C)(C)C#N)c2)cc1-n1cc(-c2cncc(C#N)c2)nn1 [XII-13] | 0.9%
Cc1ncc(C(=O)Nc2cc(N3CCCCC3)cc(C(F)(F)F)c2)cc1-n1cc(-c2cnn(C)c2C)nn1 [Example I-74] | 9%
Cc1ncc(C(=O)Nc2cc(C(C)(C)C)on2)cc1-n1cc(-c2cncc(N3CCN(CCF)CC3)c2)nn1 [Example I-198] | 1.7%
Cc1ncc(NC(=O)c2cc(N3CCN(C)CC3)cc(C(F)(F)F)c2)cc1-n1cc(-c2cnn(C)c2C)nn1 [XII-1] | 4.4%
COCCN1CCN(c2cncc(-c3cn(-c4cc(C(=O)Nc5cc(C(C)(C)C)on5)cnc4C)nn3)c2)CC1 [Example I-135] | 2.6%
CCN1CCN(c2cc(NC(=O)c3cnc(C)c(-n4cc(-c5cncc(C#N)c5)nn4)c3)cc(C(F)(F)F)c2C)CC1 [Example I-49] | 6.2%
Cc1ncc(NC(=O)c2cccc(C(C)(C)C#N)c2)cc1-n1cc(-c2cncc(CN(C)C)c2)nn1 [XII-64] | 0.9%
Cc1ncc(C(=O)Nc2cc(C(C)(C)C)on2)cc1-n1cc(-c2cncc(N3CCN(C)CC3)c2)nn1 [Example I-39] | 1.5%
Cc1ncc(NC(=O)c2cccc(C(C)(C)C#N)c2)cc1-n1cc(-c2cncc(CO)c2)nn1 [XII-63] | 3.8%
COc1cncc(-c2cn(-c3cc(C(=O)Nc4cc(C(C)(C)C)on4)cnc3C)nn2)c1 [Example I-27] | 3.3%
Cc1ncc(NC(=O)c2cccc(C(C)(C)C#N)c2)cc1-n1cc(-c2cncnc2)nn1 [XII-10] | 2.5%
COc1c(CN2CCCC2)cc(C(F)(F)F)cc1NC(=O)c1cnc(C)c(-n2cc(-c3cnn(C)c3C)nn2)c1 [Example I-104] | 2.1%
CCN1CCN(c2cc(NC(=O)c3cnc(C)c(-n4cc(-c5cnc(NC(C)=O)s5)nn4)c3)cc(C(F)(F)F)c2C)CC1 [Example I-48] | 1.7%
Cc1ncc(NC(=O)c2cccc(C(C)(C)C#N)c2)cc1-n1cc(-c2cncc(NCCN(C)C)c2)nn1 [XII-52] | 7%
CCN(CC)c1cc(NC(=O)c2cnc(C)c(-n3cc(-c4cnn(C)c4C)nn3)c2)cc(C(F)(F)F)c1 [Example I-73] | 1.7%

Results, then the molecule that gave them:

remaining activity at 2 µM | SMILES
0.8% | Cc1ncc(NC(=O)c2cc(OC(F)(F)F)cc(N3CCN(C)CC3)c2)cc1-n1cc(-c2cnn(C)c2C)nn1 [XII-15]
1.8% | COCCN(C)Cc1cc(NC(=O)c2cnc(C)c(-n3cc(-c4cnn(C)c4C)nn3)c2)cc(C(F)(F)F)c1 [Example I-109]
1.7% | Cc1ncc(NC(=O)c2cc(C(F)(F)F)ccn2)cc1-n1cc(-c2cncc(N3CCN(C(C)C)CC3)c2)nn1 [XII-35]
6.8% | Cc1ncc(NC(=O)c2cccc(C(C)(C)C#N)c2)cc1-n1cc(-c2cncc(N3CCN(C(C)C)CC3)c2)nn1 [XII-50]
1.5% | COc1ccc(NC(=O)c2cnc(C)c(-n3cc(-c4cncs4)nn3)c2)cc1C(F)(F)F [Example I-89]
1.8% | CCN1CCN(c2cncc(-c3cn(-c4cc(NC(=O)c5cccc(OC(F)(F)F)c5)cnc4C)nn3)c2)CC1 [XII-55]
1.6% | Cc1ncc(C(=O)Nc2cc(CNC(C)C)cc(C(F)(F)F)c2)cc1-n1cc(-c2cnn(C)c2C)nn1 [Example I-107]
5.1% | Cc1ncc(C(=O)Nc2cc(CN3CCCC3)cc(C(F)(F)F)c2)cc1-n1cc(-c2cncnc2)nn1 [Example I-72]
1.5% | Cc1ncc(C(=O)Nc2ccc(Cl)c(C(F)(F)F)c2)cc1-n1cc(-c2cncc(N3CCN(C)CC3)c2)nn1 [Example I-142]
1% | Cc1ncc(C(=O)Nc2cc(CNC(C)C)c(C)c(C(F)(F)F)c2)cc1-n1cc(-c2cnn(C)c2C)nn1 [Example I-132]
1.7% | CCOCCN1CCN(c2cncc(-c3cn(-c4cc(NC(=O)c5cc(C(F)(F)F)ccn5)cnc4C)nn3)c2)CC1 [XII-33]
1.9% | Cc1ncc(C(=O)Nc2cc(OC(F)(F)F)cc(N3CCN(C)CC3)c2)cc1-n1cc(-c2cncnc2)nn1 [Example I-124]
1.5% | Cc1cn2c(-c3cn(-c4cc(C(=O)Nc5cc(C(F)(F)F)ccn5)cnc4C)nn3)cnc2cn1 [Example I-32]
1.7% | Cc1ncc(C(=O)Nc2cc(CNCC(C)C)cc(C(F)(F)F)c2)cc1-n1cc(-c2cnn(C)c2C)nn1 [Example I-108]
1.8% | Cc1ncc(C(=O)Nc2cc(CN3CCCC3)cc(C(F)(F)F)c2)cc1-n1cc(-c2cnn(C)c2C)nn1 [Example I-12]
1% | Cc1ncc(C(=O)Nc2cc(C(C)(C)C)on2)cc1-n1cc(-c2cncc(N3CCN(CCOC(C)C)CC3)c2)nn1 [Example I-197]
1.5% | Cc1ncc(C(=O)Nc2cc(C(C)(C)C)on2)cc1-n1cc(-c2cncc(Br)c2)nn1 [Example I-34]
1.6% | Cc1ncc(C(=O)Nc2cc(C(C)(C)C)on2)cc1-n1cc(-c2cncc(NC3CCN(C(C)C)CC3)c2)nn1 [Example I-199]
8% | Cc1ncc(C(=O)Nc2cc(C(F)(F)F)ccn2)cc1-n1cc(-c2cnn(C)c2C)nn1 [Example I-2]
1.3% | Cc1ncc(C(=O)Nc2cc(CN(C)C)cc(C(F)(F)F)c2)cc1-n1cc(-c2cnn(C)c2C)nn1 [Example I-106]
3.8% | Cc1ncc(C(=O)Nc2cc(C(C)(C)C)on2)cc1-n1cc(-c2cncc(CN3CCC(F)(F)C3)c2)nn1 [Example I-189]
0.8% | Cc1ncc(C(=O)Nc2cc(C(C)(C)C)on2)cc1-n1cc(-c2cncc(N3CCC(N4CCN(C)CC4)CC3)c2)nn1 [Example I-205]
2.5% | CCN1CCN(c2cncc(-c3cn(-c4cc(NC(=O)c5ccc(OC)c(C(F)(F)F)c5)cnc4C)nn3)c2)CC1 [XII-39]

same assay, conditions: measurement at 0.29 μM (*); 100% = no inhibition, 0% = total inhibition; read-out: % CTL (residual activity of the enzyme relative to DMSO control)

remaining activity at 0.29 µM | SMILES
3% | COc1ccc(C(=O)Nc2cnc(C)c(-n3cc(-c4cncc(N5CCN(C)CC5)c4)nn3)c2)cc1C(F)(F)F [XII-40]
0.9% | CC(=O)Nc1ncc(-c2cn(-c3cc(NC(=O)c4cccc(C(C)(C)C#N)c4)cnc3C)nn2)s1 [XII-14]

same assay, conditions: measurement at 1.43 μM (***); 100% = no inhibition, 0% = total inhibition; read-out: % CTL (residual activity of the enzyme relative to DMSO control)

remaining activity at 1.43 µM | SMILES
2.3% | Cc1ncc(C(=O)Nc2cc(C(F)(F)F)cc(N3CCCC3)c2C)cc1-n1cc(-c2cnn(C)c2C)nn1 [Example I-121]
